In a melting point compilation (Tetko et al.; mined from patent text by program, amines drawn as free bases though some values may be those of a salt) one finds melting point data, which are given here for 94 compounds.

Each structure is given as a SMILES string.

Usually melting point stands for the temperature, or range, at which the solid turns liquid.

As to `Cc1ncc(CSC(=O)c2cccc(C(=O)SCc3cnc(C)c(O)c3CO)c2)c(CO)c1O`, the melting point lay in the range of 185 to 187 °C.
The same measure for `COC(=O)NNC(=S)Cc1ccc(C)cc1`: 104 to 105 °C.
The compound `C=CCOc1ccc(C(=O)c2ccc(OCC=C)cc2O)c(O)c1` registered a melting point of 95 °C.
The same measure for `COc1cc(OC)cc(-n2c(-c3ccccc3F)cc(=O)c(C)c2-c2ccc(F)cc2F)c1`: 171 to 173 °C.
To `COC(=O)c1cc2c3cc(Br)ccc3n(Cc3ccccc3)c2s1` belongs 134 to 135 °C; to `COC(=O)C1(C)Oc2ccc(Cl)cc2C(C)(C)O1` (centres undefined), 89 °C; to `CC(CC#N)n1nnc2cc3c(=O)n(C(C)Cn4ncnn4)nnc3cc2c1=O` (centres undefined), 105 to 108 °C.
The same measure for `CCc1c(O)cccc1O`: 58 to 59 °C.
Compound `O=C(O)C1=Cc2cc(F)cc(Cl)c2OC1C(F)(F)F` (centres undefined) showed a melting point of 240 to 241 °C.
To `N#Cc1ccc(OCCCCC(=O)O)cc1` belongs 160 °C; to `CCCCCCCCCCCCCCCCCC(=O)OC1CC(C)(C)N(OC(=O)CCCCCCCCCCCCCCCCC)C(C)(C)C1`, 62 to 65 °C; to `O=C(NC(=O)C(c1ccccc1)c1ccccc1)C1CC1`, 178 °C.
To `O=C(Cl)c1ccc(Cl)cc1[N+](=O)[O-]` belongs 95 to 96 °C.
To `CCOc1ccc(-c2nc(OC)ccc2N2CCN(c3ccc(OC)cc3)CC2)cc1` belongs 125 to 128 °C; to `Nc1c(C=O)cc(-n2cnnc2)cc1C(F)(F)F`, 234 to 236 °C; to `CCc1n[nH]c(CC)c1CCCCCCOc1ccc(Cl)cc1`, 130 to 132 °C.
As for `CCCCON=C(C(=O)OCC)c1csc(N)n1`, the melting point lay within 126 to 128 °C.
Take `O=C1Oc2ccccc2Oc2ccccc21`: the melting point lay within 62 to 66 °C.
The same measure for `COC(=O)CC(=O)c1ccccc1OCc1ccccc1C`: 38 to 42 °C.
To `CCCCC(=O)Nc1cc(C(=O)N2CCOCC2)ccn1` belongs 110 to 112 °C.
To `O=C(c1ccc(Cl)cc1)c1ccc([N+](=O)[O-])cc1` belongs 97 to 98 °C; to `COc1ccc(NCCOc2ccc3ccccc3c2)cc1`, 92 °C; to `CN(C)S(=O)(=O)N(C)c1ccc(C(O)(C(F)(F)F)C(F)(F)F)cc1`, 63 to 65 °C.
Compound `CN1CCC(C(=O)N(C)C)C(c2cccc(F)c2)C1` (centres undefined) displayed a melting point of 101 °C.
To `COC(=O)c1[nH]c(-c2ccccc2)c(NC(N)=O)c1C(=O)OC` belongs 246 to 248 °C; to `CN(C)C(=N)c1c(Cl)cc(N=Cc2ccc(N(C)C)cc2F)cc1Cl`, 127 to 128 °C; to `COC(=O)c1cccc(NC(=O)N(C)C)c1`, 110 °C.
As to `Cc1cc2ccccn2c1`, the melting point fell in the range of 57 to 58 °C.
To `O=C(NCc1ccc(Cl)cc1)c1cnc2c(F)cc(-c3nccs3)cc2c1O` belongs 296 to 298 °C; to `Cc1cccc(Nc2nc3c(s2)CCc2[nH]ncc2-3)n1`, 280 °C; to `CCCn1nc2c(N)nc3ccccc3c2c1CCCCS(C)(=O)=O`, 155 to 157 °C.
Turning to `COc1ccccc1N1CCN(C(=O)Cc2ccccc2Br)CC1`, the melting point fell in the range of 95 to 97 °C.
The same measure for `CCc1ccc(S(=O)(=O)NC(C)(C)C)s1`: 38 °C.
The same measure for `COc1ccc(Nc2ccn(-c3ccccc3)n2)cc1`: 96 to 98 °C; for `CN1C(=O)N(c2ccccc2O)Cc2cnc(Nc3ccccc3)nc21`: 192 °C; for `CCc1nc(NC(=O)C2=C(O)c3ccc4ccccc4c3S(=O)(=O)N2C)sc1C`: 233 to 234 °C.
To `O=C(N1CCN(c2ccccc2)CC1)N1CC(Oc2ccc(Br)cc2)C1` belongs 160 to 161 °C; to `Cc1nnc2ccc(-c3ccc(C(F)(F)F)cc3)nn12`, 199 to 201 °C.
`CCOC(=O)c1sc(N2CCN(Cc3ccc(Cl)cc3)C2=O)nc1C` came in with a melting point of 117 to 119 °C.
To `Cc1c(Cl)cccc1S(=O)O` belongs 112 °C; to `OCc1ccc(-c2ccccc2-c2nnn[nH]2)cc1`, 132 to 135 °C; to `CONC(=O)c1ccccc1SCc1ccccc1`, 100 to 105 °C.
The same measure for `COC1(c2cnc(OCc3ccc(/C(C)=N/O)cc3)s2)CCOCC1`: 107 to 109 °C.
To `O=c1[nH]c2ccccc2c(=O)n1CCN1CCC(c2noc3cc(F)ccc23)CC1` belongs 253 °C; to `COc1ccc(CNC(=O)n2cc(F)c(=O)[nH]c2=O)c(OC)c1`, 154 °C.
As to `O=C(O)CCc1cn(Cc2cccc(C(=O)NCc3ccc(C(F)(F)F)cc3)c2)nc1-c1ccccc1`, the melting point fell in the range of 165 to 166 °C.
The same measure for `O=C(O)c1ccccc1C(=O)c1ccncc1`: 191 to 193 °C; for `CCCSc1cc(S(N)(=O)=O)c(N)cc1Cl`: 109 to 111 °C; for `CC(=CN(C)C)C(=O)c1cccc(C(F)(F)F)c1`: 53 to 55 °C.
To `COc1cccc(-c2nc(N)ncc2-c2ccc(=O)n(C(C)C)n2)c1` belongs 211 °C.
The same measure for `COCCCNc1cc(C)ccc1N`: 69 to 72 °C; for `Cn1ncc(C(=O)N2CCCC2)c1C(=O)Nc1cc2nc(-c3ccccc3)nn2cc1F`: 250 to 251 °C; for `CCSc1ccc(-c2cncnc2)c2c1C(=O)CC(C)C2` (centres undefined): 168 to 171 °C.
As for `N#Cc1cccc(-c2c(C(N)=O)c3n(c2Cl)CCNC3)c1`, the melting point fell in the range of 151 to 153 °C.
On to `Cc1cc(-c2nc3cccnn3c2-c2ccnc(NC(=O)NCC(C)O)c2)ccc1F` (centres undefined), for which the melting point was in the range of 139 to 140 °C.
To `N#Cc1ccc(NC(=S)NCc2ccccn2)cc1` belongs 144 °C; to `O=C1c2ccccc2S(=O)(=O)N1CCCOc1ccccc1`, 83 to 86 °C.
To `Cc1cn2nc(-c3ccccc3)nc2cc1NC(=O)c1c(C(=O)N2CCC2)cnn1C` belongs 226 to 228 °C; to `CC[C@H](Nc1nc(Nc2cccc(NS(C)(=O)=O)c2)nc2[nH]cnc12)c1ccccc1`, 138 to 141 °C.
Compound `CCCCCSc1cc(C(C)(C)C)c(O)c(C(C)(C)C)c1` displayed a melting point of 54 to 55 °C.
The same measure for `N#Cc1c(OCC(F)(F)F)nc(C2CC2)nc1N1CCc2ccccc2CC1`: 116 to 118 °C; for `Cc1cc(=O)n(-c2cc(C(=O)O)c(Cl)cc2F)c(=O)n1C(F)F`: 247 to 248 °C.
The same measure for `CCOCc1nc2c(N)nc3cc(-c4cccc(C(=O)N5CCCC5)c4)cnc3c2n1CC(C)(C)O`: 185 to 187 °C.
To `CCc1nc(-c2ccc(/C=C/C3(O)CN4CCC3CC4)cc2)no1` (centres undefined) belongs 158 to 160 °C.
`CC(C)n1nc(-c2c(NCc3ccncc3)nc(N)nc2-c2ccccc2)ccc1=O`: the melting point turned out to be 222 °C.
To `NC(=O)CNC(=O)c1cccc(-c2cccc3oc(Cc4cccc(C(F)(F)F)c4)cc23)c1` belongs 105 to 106 °C; to `CCOC(=O)CC(NC(=O)C(C)C)C(=O)c1ccco1` (centres undefined), 65 to 67 °C.
On to `O=Cc1ccc(OCCCN2C(=O)c3ccccc3C2=O)cc1`, for which the melting point was 120 to 121 °C.
In turn, `CN1CN=C2C=C(Nc3ccc(I)cc3F)C(F)(C(N)=O)C=C21` (centres undefined) gave a melting point of 265 to 268 °C.
The same measure for `Cc1oc(-c2ccc(C(F)(F)F)cc2)nc1COc1ccc(S(=O)(=O)Cl)cc1`: 90 to 93 °C; for `Cc1nc(N2CCN(Cc3ccc(OC(F)(F)F)cc3)C2=O)sc1C(=O)Nc1ccccc1`: 187 to 188 °C; for `CC(=O)Nc1ccc(-c2ccc(CCCC(=O)O)cc2)cc1Br`: 155 to 156 °C.
To `COc1c(C)cc([N+](=O)[O-])c(NC(C)C)c1[N+](=O)[O-]` belongs 77.5 to 79 °C; to `O=C(NC(=O)N1C(=O)Cc2ccccc21)c1ccccc1`, 184 °C.
In turn, `c1ccc2c(c1)c1nncn1c1c(-c3noc(C4CC4)n3)ncn21` came in with a melting point of 308 to 314 °C.
The same measure for `Cc1nccc(C(N)=O)c1[N+](=O)[O-]`: 203 to 204 °C; for `C=CC(=O)NC(C)c1ccc(Cl)cc1` (centres undefined): 103 to 104 °C.
To `CN1C(C)(C)CC(CNc2nc(NO)nc(NCC3CC(C)(C)N(C)C(C)(C)C3)n2)CC1(C)C` belongs 157 to 160 °C; to `C#CCN1C(=O)C(C)Oc2cc(F)c(N)cc21` (centres undefined), 142 to 145 °C.
To `Cc1cc(N2CCCC2)c2ccc(I)cc2n1` belongs 99 to 102 °C; to `CC1(C)CC2(NC(=O)NC2=O)c2ccccc2O1` (centres undefined), 233 to 235 °C; to `CCCC(=O)Nc1n[nH]c2cc(-c3cccnc3)ccc12`, 205 °C.
Turning to `CCCc1c(OCC(O)COc2cccc(NC(=O)c3nnn[nH]3)c2C#N)ccc(C(C)=O)c1O` (centres undefined), the melting point was 117 to 119 °C.
To `CCOC(=O)C(=O)Nc1cc(C(F)(F)F)c(Cl)cc1[N+](=O)[O-]` belongs 96.5 to 97.5 °C; to `CC(C)N1CCC(C2=C(C#N)C(c3cccc4nonc34)c3c[nH]nc3N2)CC1` (centres undefined), 260 °C; to `O=[N+]([O-])c1cc(O)ccc1NCCO`, 142 °C.
To `COC(=O)c1ccc(-c2ccncc2)c(C)c1` belongs 70 to 71 °C; to `CCC(=O)Nc1c(C(=O)c2ncccc2CO)[nH]c2cc(Cl)ccc12`, 198 to 199 °C.
The compound `COc1ccc2c(C(=O)Nc3ccc(CN4CCN(C)CC4)c(C(F)(F)F)c3)nsc2c1` came in with a melting point of 156 °C.
`N#Cc1ccc2c(c1)NCc1ccccc1O2`: the melting point was in the range of 104 to 105 °C.
The same measure for `CC(C)=CCCC(C)C1CCC2C3CC=C4CC(O)CC(O)C4(C)C3CCC12C` (centres undefined): 137 to 139 °C; for `CCCCn1c(=S)[nH]c2sccc2c1=O`: 200 to 203 °C.
The same measure for `O=S1(=O)NCN(C2CC2)c2cc(Br)cc(F)c21`: 195 to 198 °C.
The same measure for `C#Cc1cccc(Nc2ncnc3c2ccn3CCOC)c1`: 240 to 241 °C.
